Test results reported in patent US20260034200A1, “TOLEROGENIC PEPTIDES” (University of Birmingham, priority 2022, published 2026).

Tests used:
[1] = system: MHC class II molecules on fixed or non-fixed HLA-DR4 transgenic mouse splenocytes (hybridoma SC3 readout); assay: Fixed APC T-cell hybridoma screen; format: cell-based; details: co-culture with formaldehyde fixed and non-fixed HLA-DR4 splenocytes, 48 h
Description: Splenocytes from HLA-DR4 transgenic mice were formaldehyde fixed by the following protocol performed at room temperature; 5 min incubation with 0.5% w/v formaldehyde in PBS at 1×10^6 cells/mL quenched by addition of an equal volume of 0.4 M glycine in PBS solution for a further 5 min, before three washes with cold PBS. T-cell hybridoma screens were set up using 1×10^5 hybridomas and either 2×10^5 formaldehyde fixed APCs or 2×10^5 non-fixed APCs for 48 h co-culture with stimulant or control and responses measured by IL-2 secretion.
The next step was to test if GAD65 P10.5.C+1.6K (P10Sol; SEQ ID NO 23) could bind to: (i) MHC class II molecules without antigen processing and, (ii) to steady-state CD11c^+ APCs. These properties are good indicators of whether a peptide can induce tolerance and be characterised as an apitope (Shepard et al., 2021). Formaldehyde fixation of splenocytes inhibits antigen processing and so to test whether GAD65 P10Sol could bind directly to cell-surface MHC class II without antigen processing, GAD65 P10-specific hybridoma SC3 was co-cultured with fixed or non-fixed splenocytes from HLA-DR4 transgenic mice. […] To test whether P10Sol could bind to steady-state CD11c^+ APCs in vivo, HLA-DR4 transgenic mice were injected with 80 μg of P10Sol or PBS, with CD11c^+ splenocytes isolated 1 h later and co-cultured with GAD65 P10 hybridomas SC3 or SC22. […]

[2] = system: PBMCs from T1D patients (CD25+ CD71+ CTVmid CD4+ T-cells); assay: FAIM assay with PBMCs from T1D patients; format: cell-based, human; details: 34/38 T1D patients
Source text: FIG. 7. GAD65 P10Sol response rate in T1D patients. (A) T1D PBMCs were screened using the FAIM assay for responsiveness to GAD65 P10 30-mer and GAD65 P10Sol with paired ^3H-thymidine samples were acquired for each condition. A positive response for FAIM assay required a proliferating CD25^+ CD71^+ CD4 T-cell count >25 and the population SI to be ≥2× the negative control. A positive response for the ^3H-thymidine assay required raw counts >1000 and a SI of ≥3× the negative control. […] The scale for both heat maps is Log 2 (stimulation index (SI)). […] (B) Agreement analysis for the outcomes of the flow cytometric and ^3H-thymidine proliferation readouts of the FAIM assay. (C) Paired analysis of stimulation indexes from FAIM^+ and ^3H-thymidine readouts, wilcoxon matched-pairs sign rank test.
Soluble candidate peptide GAD65 P10Sol (SEQ ID NO 23) was used as a representative peptide and tested for induction of tolerance in a suitable HLA-DR transgenic mouse model (FIG. 1A). […] The FAIM assay involves a fluorescent dye-labelled CD4^+ cell enriched culture with a primary flow cytometric readout assessing CD4 T-cell fluorescent dye dilution and cell-surface activation marker expression with optional paired readouts of ^3H-thymidine incorporation and secreted cytokine measurement. […]

Sequence: DAAWGGGLLMSRKHKWKLSGVERANSVTWN [P10 30-mer]
- IL-2 response from hybridoma SC3 [1]: strong IL-2 responses
- T1D patients responding (FAIM+) [2]: 89%
